What was measured:
Type in all cases: cell-based
[1] = test system: Wnt activity (Sp5-Luc reporter, Wnt-responsive promoter) in SW480 colon carcinoma cells; assay: Wnt activity screening assay: Sp5-Luc reporter gene assay in SW480 cells; conditions: Homo sapiens, overnight incubation, 10-point curve starting from 10 μM
In short: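 Luminescence (BrightGlo) was normalised to DMSO-only wells and fitted with a four-parameter variable-slope model for EC50; beyond 10 μM, % inhibition at 10 μM is given. Stable Sp5-Luc SW480 reporter cells, 4,000/well in 1% FBS, were exposed overnight at 37 °C to compounds, top 10 μM, 1:3 dilutions, 0.1% DMSO.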

[2] = test system: primary human fibroblasts derived from IPF patients (LL29 cells) treated with TGF-β1; assay: Inhibition of the fibrotic process: αSMA staining in TGF-β1-treated LL29 fibroblasts; conditions: Fibroblast; for EC50: 96 h, LL29 fibroblasts treated with TGF-β1 (20 ng/mL), 4 days, Table 4
In short: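 EC50 from triplicate-well dose-response fits of % αSMA-positive cells, normalized to TGF-β1-stimulated DMSO controls, with SYTOX-positive dead cells excluded. LL29 IPF fibroblasts received compound at 10 μM–1.87 nM (0.1% DMSO) plus 20 ng/mL TGF-β1 for 4 days in 1% FBS medium; above 10 μM, % inhibition at 10 μM reported.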

SW480 colon cancer cells = assay: Cell viability assay (CellTiter-Blue) in SW480 cells; conditions: Homo sapiens, 96 h, four days, CellTiter-Blue, 10 μM to 0.0045 μM
In short: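 Four-day viability readout in SW480 cells: compound at 0.0045–10 μM (1:3 series), DMSO controls in eight replicates, CellTiter-Blue fluorescence after ~3 h. Values are regression-derived EC50s, or percent inhibition at 10 μM when EC50 exceeds 10 μM.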

SMILES | EC50 [1] [µM] | EC50 [2] [µM] | EC50 (SW480 colon cancer cells) [µM] | inhibition at 10 µM ([2]; 10 μM, LL29 fibroblasts treated with TGF-β1, Table 4, read-out: percent inhibition at 10 μM (given in parentheses for EC50 >10 μM)) [%]
Oc1cncc(-c2ccc3[nH]nc(-c4nc5c(-c6cccc(F)c6)cccc5[nH]4)c3n2)c1 [Compound 517, 5-(3-(4-(3-Fluorophenyl)-1H-benzo[d]imidazol-2-yl)-1H-pyrazolo[4,3-b]pyridin-5-yl)pyridin-3-ol] | 6.55 | 1.54 | 4.54 | –
c1cncc(-c2cccc3[nH]c(-c4n[nH]c5ccc(-c6cncc(OC7CCCCC7)c6)nc45)nc23)c1 [Compound 559, 5-(5-(Cyclohexyloxy)pyridin-3-yl)-3-(4-(pyridin-3-yl)-1H-benzo[d]imidazol-2-yl)-1H-pyrazolo[4,3-b]pyridine] | 3.14 | 2.62 | 3.31 | –
Oc1cncc(-c2ccc3[nH]nc(-c4nc5c(-c6cccnc6)cccc5[nH]4)c3n2)c1 [Compound 565, 5-(3-(4-(Pyridin-3-yl)-1H-benzo[d]imidazol-2-yl)-1H-pyrazolo[4,3-b]pyridin-5-yl)pyridin-3-ol] | 1.45 | 1.73 | 1.14 | –
c1cc(N2CCCCC2)c2nc(-c3n[nH]c4ccc(-c5cncc(OCCN6CCCC6)c5)nc34)[nH]c2c1 [Compound 610, 3-(4-(Piperidin-1-yl)-1H-benzo[d]imidazol-2-yl)-5-(5-(2-(pyrrolidin-1-yl)ethoxy)pyridin-3-yl)-1H-pyrazolo[4,3-b]pyridine] | 3.05 | 1.97 | 2.69 | –
COc1cncc(-c2ccc3[nH]nc(-c4nc5c(N6CCCCC6)cccc5[nH]4)c3n2)c1 [Compound 612, 5-(5-Methoxypyridin-3-yl)-3-(4-(piperidin-1-yl)-1H-benzo[d]imidazol-2-yl)-1H-pyrazolo[4,3-b]pyridine] | 3.77 | > 10 | 4.05 | 26.9
Oc1cncc(-c2ccc3[nH]nc(-c4nc5c(N6CCCCC6)cccc5[nH]4)c3n2)c1 [Compound 613, 5-(3-(4-(Piperidin-1-yl)-1H-benzo[d]imidazol-2-yl)-1H-pyrazolo[4,3-b]pyridin-5-yl)pyridin-3-ol] | 1.55 | 3.32 | 2.71 | –
CN1CCN(c2cccc3[nH]c(-c4n[nH]c5ccc(-c6cncc(OC7CCCCC7)c6)nc45)nc23)CC1 [Compound 639, 5-(5-(Cyclohexyloxy)pyridin-3-yl)-3-(4-(4-methylpiperazin-1-yl)-1H-benzo [d]imidazol-2-yl)-1H-pyrazolo[4,3-b]pyridine] | 1.03 | 1.36 | 0.933 | –
CN1CCN(c2cccc3[nH]c(-c4n[nH]c5ccc(-c6cncc(OCc7ccccc7)c6)nc45)nc23)CC1 [Compound 646, 5-(5-(Benzyloxy)pyridin-3-yl)-3-(4-(4-methylpiperazin-1-yl)-1H-benzo[d]imidazol-2-yl)-1H-pyrazolo[4,3-b]pyridine] | 1.06 | 1.46 | 1.04 | –

— patent publication US10392383B2, “3-(1H-benzo[d]imidazol-2-yl)-1H-pyrazolo[4,3-b]pyridines and therapeutic uses thereof” (Samumed, LLC, priority 2015, dated 2019)
